Data on four molecules can be found in US7282339B2, “Competitive immunoassay” (Invitrogen Corporation, priority 2003, dated 2007).

“And” between values parts separate entries of the source, which are not always exact repeats. Identical values can stand only once.

For test [1], the system named is P-Tyr-100 antiphosphotyrosine monoclonal antibody. Description: Ligand analog screening: fluorescence intensity and polarization vs P-Tyr-100 antibody concentration (Examples 22, 24). It is filed as binding, mouse. To be noted: ratio of fluorescence intensity at lowest (Fmax) to highest (Fmin) antibody concentration; 50 nM ligand analog, P-Tyr-100 0.8 to 500 nM; ex/em 480/535 nm. How it is done:
Solutions of test compounds (100 nM) were prepared were prepared in 50 mM Tris-HCl pH 7.5, 10 mM MgCl2, 0.01% Brij-35, 500 μM ATP, 2 mM DTT, 1 mM EGTA. 20 μl aliquots of these solutions were pipetted into the wells of a 384-well microplate. 20 μl aliquots of a serially-diluted […] stock solution of P-Tyr-100 antiphosphotyrosine monoclonal antibody (Cell Signaling Technology, Beverly, Mass.) were added to the wells. The resulting samples contained 50 nM of each ligand analog (Compounds 15, 7, 8, 9, 18 and 19) and antibody concentrations ranging from 0.8 to 500 nM. Fluorescence polarization and intensity of the samples was measured on an EnVision microplate reader (PerkinElmer Life Sciences) using excitation/emission filter settings of 480/535 nm. Increasing fluorescence polarization as a function of antibody concentration (A) provides confirmation of ligand analog binding to the antibody. […] Phosphotyrosine peptide, target ligand, (phospho-pp60 c-src (521-533); TSTEPQY*QPGENL, Bachem California, Inc. Torrance, Calif.) was then added to all samples at a concentration of 10 μM and the fluorescence intensity and polarization measurements were repeated (C, D). […] Displacement of the ligand analogs from antibody is confirmed by depolarization of fluorescence (D compared to A). […] See, FIG. 14.
Compound 12 and Compound 13 were assessed for efficacy using the methods described in Example 22. […] Samples containing 100 nM of Compound 13 and additional components identified in the figure legend were prepared in 50 mM Tris-HCl pH 7.5, 10 mM MgCl2, 0.01% Brij-35, 100 μM ATP, 2 mM DTT, 1 mM EGTA. 100 μL volumes of these samples were transferred to microcuvettes. The fluorescence emission spectrum was recorded for each sample using a Hitachi F-4500 spectrofluorometer (excitation wavelength=520 nm). See, FIG. 15

For test [2], the system named is P-Tyr-100 monoclonal anti-phosphotyrosine antibody. Description: Rapid displacement of the ligand analog by the target ligand, off rate (Example 13). It is filed as binding, mouse. The settings on record: 100 nM Compound 15+100 nM P-Tyr-100; 10 μM phospho-pp60 c-src peptide added. How it is done:
A 5 mM solution of Compound 15 was prepared in water. In 150 μl kinase buffer (50 mM Tris, pH 7.5, 10 mM MgCl2, 1 mM EGTA, 0.01% Brij 35, 2 mM DTT, 100 μM ATP) a reaction was made containing 100 nM Compound 15+100 nM P-Tyr-100 monoclonal anti-phosphotyrosine antibody (Cell Signaling Technology, catalog # 9411). The fluorescence was measured over time using a Hitachi F-4500 fluorimeter (Ex 470, Em 510, slit width 5 nm for both wavelengths, PMT gain 700 V). After 15 seconds, 10 μM phospho-pp60 c-src peptide (521-533) (TSTEPQY*QPGENL) from Bachem, catalog # H-3258 was added.

Test [3] concerns the target P-Tyr-100 anti-phosphotyrosine monoclonal antibody. Description: Determination of dissociation constants for antibody-ligand complexes (Example 23). It counts as binding, mouse. To be noted: 1 nM test compound, P-Tyr-100 0.02 to 40 nM; fluorescence intensity, single-site saturation fit; read-out: dissociation constant. How it is done:
Solutions of Compound 15 and Compound 34 (2 nM) were prepared in 50 mM Tris-HCl pH 7.5, 10 mM MgCl2, 0.01% Brij-35, 500 μM ATP, 2 mM DTT, 1 mM EGTA, 0.5 mg/ml bovine serum albumin. 25 μl aliquots of these solutions were pipetted into the wells of a 384-well microplate. 25 μl aliquots of a serially-diluted 0.08 μM stock solution of P-Tyr-100 anti-phosphotyrosine monoclonal antibody (Cell Signaling Technology, Beverly, Mass.) were added to the wells. The resulting samples contained 1 nM test compound and antibody concentrations ranging from 0.02 to 40 nM. Fluorescence intensities of triplicate samples at each antibody concentration were measured on an EnVision microplate reader (PerkinElmer Life Sciences) using excitation/emission filter settings of 480/535 nm. The mean (n=3) fluorescence intensities were plotted against the corresponding antibody concentrations. Dissociation constants were determined from hyperbolic single-site saturation binding functions fitted to the experimental data by nonlinear regression analysis (SigmaPlot, Jandel Scientific Inc). The dissociation constants obtained were 2.0 nM for Compound 15+P-Tyr-100 and 1.7 nM for Compound 34+P-Tyr-100.

Test [4] concerns P-Tyr-100 monoclonal anti-phosphotyrosine antibody. Nature of the test: Competitive immunoassay with Compound 15, anti-phosphotyrosine antibody and phosphotyrosine peptide (Example 12). The settings on record: 100 nM ligand analog + 100 nM P-Tyr-100, kinase buffer. It counts as binding, mouse. How it is done: A 5 mM solution of Compound 15 was prepared in water. In 150 μl kinase buffer (50 mM Tris, pH 7.5, 10 mM MgCl2, 1 mM EGTA, 0.01% Brij 35, 2 mM DTT, 100 μM ATP) several separate reactions were made containing: 1) 100 nM Compound 15; 2) 100 nM […]+100 nM P-Tyr-100 monoclonal anti-phosphotyrosine antibody (Cell Signaling Technology, catalog # 9411); 3) 100 nM Compound 15+100 nM P-Tyr-100+10 μM phospho-pp60 c-src peptide (521-533) (TSTEPQY*QPGENL) from Bachem, catalog # H-3258; 4) 100 nM Compound 15+100 nM P-Tyr-100+10 μM phospho-abl peptide (EAIY*AAPFAKKK), custom peptide MPIJ6 from Anaspec. The resulting fluorescence was measured using a Hitachi F-4500 cuvette fluorimeter using 100 μl cuvettes. The F-4500 was set on ‘emission scan’, with an excitation at 470 nm, slit width of 5 nm, emission scan from 485-650 nm, slit width 5 nm, and the PMT gain was at 700 V.

Test [5] shares this test system. Description: Z′ factor of displacement assay with Compound 34 (Example 14). The settings on record: Compound 34+P-Tyr-100 complex, phospho-pp60 c-src peptide. It is filed as binding, mouse. How it is done: A 2 mM solution of Compound 34 was prepared in water. Two working stocks were prepared in kinase buffer (50 mM Tris, pH 7.5, 10 mM MgCl2, 1 mM EGTA, 0.01% Brij 35, 2 mM DTT, 100 μM ATP): 1) 50 nM of Compound 34+100 nM P-Tyr-100 monoclonal anti-phosphotyrosine antibody (Cell Signaling Technology, catalog # 9411); 2) 100 μM phospho-pp60 c-src peptide (521-533) (TSTEPQY*QPGENL) from Bachem, catalog # H-3258. In two 384-well microplates, […] of the 50 nM Compound 34+100 nM P-Tyr-100 complex was added to 96 wells in each plate. To the same wells, 25 μl of either kinase buffer alone (48 wells each plate) or the 100 μM phospho-pp60 c-src peptide in kinase buffer (48 wells each plate) was added. The fluorescence was measured in a Victor^2 microplate reader (Wallac), 1 read/well for 0.2 sec each at 30000V gain, excitation 485+/−17.5 nm, emission 535+/−12.5 nm.
The Z′ statistic was calculated using equation 5 from Zhang, J.-H., Chung, T., D., Y., and Oldenburg, K. R. (1999) A simple statistical parameter for use in evaluation and validation of high throughput screening assays. J. Biomol. Screen. 4, 67-73. […] In other words, there is a 4-fold increase in fluorescent signal after the ligand analog is displaced by the phosphorylated peptide. See, FIG. 6.

The subject of another test is p-Tyr-100 antibody. Nature of the test: Screening of phosphotyrosine ligand-binding antibodies with Compound 16 (Example 20). The arrangement: species or system mouse. To be noted: compared with p-Tyr-69, p-Tyr-20 and 4G10 antibodies; 50 nM Compound 16. The protocol: A 4 mM stock of Compound 16 was made in 16% (v/v) DMSO. Three different antibodies were diluted to 1 μM in 50 mM MOPS, pH 7.2:1) p-Tyr-100 antibody (Cell Signaling Technology, catalog # 9411); 2) p-Tyr-69 antibody (BD Transduction Labs, catalog # 610430); 3) p-Tyr-20 antibody (BD Transduction Labs, catalog # 610000). A fourth antibody, the 4G10 antibody (Upstate Biotechnology, catalog # 05-321), was diluted to 400 nM in MOPS buffer. The antibodies were serially diluted in a microplate in 25 μl 50 mM MOPS, pH 7.2, buffer. 25 μl 100 nM Compound 16 in MOPS buffer was added to all wells. The fluorescence intensity was measured on an EnVision microplate reader (Perkin Elmer), PMT 1 gain 155, PMT 2 gain 187, excitation light 53%, 100 flashes at 9 mM height.

In test [6] the test system is P-Tyr-100 mouse monoclonal anti-phosphotyrosine antibody. Nature of the test: Efficacy of secondary antibody labels as FRET acceptors (Example 27). It is filed as binding. How it is done:
Solutions containing (A) 100 nM phosphotyramide ligand analog, (B) 100 nM phosphotyramide ligand analog complexed with 100 nM P-Tyr-100 mouse monoclonal anti-phosphotyrosine antibody and (C) 100 nM phosphotyramide ligand analog complexed with 100 nM P-Tyr-100 anti-phosphotyrosine antibody and 600 nM Fab fragments of goat anti-mouse IgG were prepared in 50 mM Tris-HC1, pH 7.5. Corresponding sets for solutions were prepared for Fab fragments labeled with three different dyes and an unlabeled control. Fluorescence intensities at 510 nm (excitation at 450 nm) were measured on a Hitachi F-4500 spectrofluorometer and were expressed as percentages of the intensity of the free phosphotyramide ligand sample (Table 5). […] Addition of a labeled secondary antibody produced a further decrease in intensity only in the case of the Alexa Fluor 555 labeling dye, which has spectral characteristics that are consistent with efficient fluorescence resonance energy transfer from the BODIPY FL phosphotyramide ligand (Compound 16).

The test system of test [7] is Compound 15+P-Tyr-100 complex. Description: Selectivity of displacement of Compound 15 by peptides or proteins (Example 16). To be noted: peptides or proteins serially diluted from 80 μM. It counts as binding, mouse. How it is done:
A 5 mM solution of Compound 15 was prepared in water. In kinase buffer (50 mM Tris, pH 7.5, 10 mM MgCl2, 1 mM EGTA, 0.01% Brij 35, 2 mM DTT, 100 μM ATP) 80 μM solutions of six different peptides or proteins were made: 1) phospho-pp60 c-src peptide (521-533) (TSTEPQY*QPGENL) (Bachem, catalog # H-3258); 2) non-phospho-pp60 c-src peptide (521-533) (TSTEPQYQPGENL) (Bachem, catalog # H-3256); 3) phospho-DSIP peptide (WAGGDAS*GE) (SynPep, catalog # 3920); 4) phospho-RRA(pT)VA peptide (RRAT*VA) (Sigma, catalog V248A); 5) beta-casein (Sigma, catalog # C6905); 6) bovine serum albumin (Sigma, catalog # A7284). These peptides or proteins were serially diluted 2-fold in 20 μl in a 0.025% Mowiol-blocked 384-well black Packard OptiPlate. 20 μl of a 2× mix of 50 nM of Compound 15+100 nM P-Tyr-100 (Cell Signaling Technology, catalog # 9411) complex in kinase buffer was added to the wells. The fluorescence intensity was measured on an EnVision microplate reader (Perkin Elmer), PMT 1 gain 155, PMT 2 gain 183, excitation light 60%, 100 flashes at 9 mM height.

As for `O=C(NCCc1ccc(OP(=O)(O)O)cc1)c1ccc(C(=O)O)c(-c2c3cc(F)c(=O)cc-3oc3cc(O)c(F)cc23)c1` [Compound 15, Oregon Green 488 6-phosphotyramide], the Fmax/Fmin in test [1] was determined as 5.4. For the same molecule, the off rate in test [2] was 0.14 s⁻¹. In addition, in test [3], the Kd came out at 2 nM. Also, in test [4], the “quenching of the reporter molecule on addition of P-Tyr-100 antibody” value was “significantly quenched”.
Regarding `NC(=O)C(Cc1ccc(OP(=O)(O)O)cc1)NC(=O)c1ccc(C(=O)O)c(-c2c3cc(F)c(=O)cc-3oc3cc(O)c(F)cc23)c1` (stereo not drawn) [Compound 34], in test [3], the Kd was 1.7 nM. For the same molecule, in test [5], the “increase in fluorescent signal after the ligand analog is displaced by the phosphorylated peptide” value is reported as 4 fold.
For BODIPY FL phosphotyramide [Compound 16], the “affinity of antibody for the ligand analog” value in the test on p-Tyr-100 antibody is “highest affinity”. In addition, the “fluorescence intensity at 510 nm, Sample C” value came out at 36 percentages in test [6] (100 nM Compound 16 + 100 nM P-Tyr-100 + 600 nM Fab labeled Alexa Fluor 555 (DOS 3.8), percentages of Sample A); 48 percentages in test [6] (100 nM Compound 16 + 100 nM P-Tyr-100 + 600 nM Fab labeled Alexa Fluor 594 (DOS 2.5), percentages of Sample A); 47 percentages in test [6] (100 nM Compound 16 + 100 nM P-Tyr-100 + 600 nM Fab labeled Alexa Fluor 647 (DOS 2.8), percentages of Sample A); 51 percentages in test [6] (100 nM Compound 16 + 100 nM P-Tyr-100 + 600 nM Fab, Unlabeled, percentages of Sample A). The “fluorescence intensity at 510 nm, Sample B” value in test [6] (100 nM Compound 16 + 100 nM P-Tyr-100, percentages of Sample A, excitation 450 nm) was 49 percentages and 51 percentages and 53 percentages. Besides, the “fluorescence intensity at 510 nm, Sample A” value in test [6] (100 nM Compound 16 alone, reference set to 100, excitation 450 nm) came out at 100 percentages. Besides, in test [6] (100 nM ligand analog + 100 nM P-Tyr-100), the “decrease of fluorescence intensity on binding to the P-Tyr-100 antibody” value is reported as “approximately 50%”.
Regarding “TSTEPQY*QPGENL [phospho-pp60 c-src peptide]”, the “displacement of the ligand analog (Compound 15)” value in test [7] was “significantly displaces”.
